Experimental data as given in patent publication US20120122843A1, “Compounds and Their Use for Treatment of Amyloid Beta-Related Diseases” (ASTRAZENECA AB, priority 2010, published 2012).

Tests used:
Aβtotal = assay: Total Aβ release from HEK cells stably expressing APPswe (MSD, 6E10 and 4G8 antibodies); type: cell-based; conditions: Homo sapiens, HEK293, 4-6 h incubation with test compound, total Aβ secreted to cell medium
Protocol: (§1) The level of activity of the compounds on Aβ formation was tested using the following method:
(§2) Compounds were diluted in 100% DMSO and stored at […] prior to use. Human Embryonic Kidney (HEK) cell line stably expressing APP with the Swedish mutation (APPswe) were cultured using Dulbecco's Modified Eagles medium (DMEM) supplied with […] glucose, Na-pyruvate and GlutaMAX with 10% FBS, 100 U/ml penicillin-streptomycin (PEST) respectively, 1× non-essential amino acids (NEAA), […] Hepes, 100 μg/ml Zeocine. Cells at about 80% confluence were washed with PBS, detached from culture flasks using 1× Trypsin/EDTA diluted in PBS, re-suspended in cell media and plated in 384-well poly-d-lysine coated cell culture plates at about 10000-15000 cells/well, in 25 μL cell media. Optionally, cryo-preserved cells (frozen and stored at −140° C. in 90% cell media and 10% DMSO) were thawed, washed and plated as above. Next the cells were incubated for 15-24 h at 37° C. and 5% CO2, after which cell medium was changed. Fresh medium containing test compound diluted ×200 from prepared compound plate was added to the cells before further incubation for 4-6 hours at 37° C. and 5% CO2. After incubation with test compound the amount of Aβ peptides, including Aβ42, Aβ40, Aβ39, Aβ38 and Aβ37, as well as total Aβ levels, secreted to cell medium was analyzed using the electrochemiluminescence assay technology from Meso Scale Discovery (MSD), in combination with specific antibodies raised against the different Aβ peptides. Aβ42, Aβ40 and Aβ38 antibodies were purchased from MSD and Aβ37 and Aβ39 were made in house. Total Aβ was measured using a combination of 6E10 and 4G8 anti Aβ antibodies from MSD. Potential cytotoxic effects of the compounds were usually assayed by measuring the ATP content (ViaLight) from cell lysate.

Aβ42 = Aβ42 release from HEK cells stably expressing APPswe (MSD electrochemiluminescence); type: cell-based, Human; conditions: 4-6 h incubation with test compound, Aβ42 secreted to cell medium
Protocol: as §1, §2

Notch = assay: Release and translocation of Notch intracellular domain into the nucleus, HEK/AENotch cells (NICD immunostaining, ImageXpress); type: cell-based, Human; conditions: 3 μM Lactacystin, 4-6 h incubation, nucleus/cytosol NICD fluorescence ratio
Protocol: The level of activity of the compounds on release and translocation of Notch intracellular domain into the cell nucleus was tested using the following method:
Compounds were diluted in 100% DMSO and stored at […] prior to use. Human Embryonic Kidney cell line overexpressing Notchl-E-human-myc construct (referred to as HEK/AENotch) were cultured in T75 cm^2 or T225 cm^2 cell culture flasks using Dulbecco's Modified Eagles medium (DMEM) supplemented with […] glucose, Na-pyruvate and GlutaMAX with 10% FBS, 100 U/ml penicillin-streptomycin (PEST) respectively, 1× non-essential amino acids (NEAA), […] Hepes and 100 μg/ml Hygromycin. Cells at about 80% confluence were washed with PBS, detached from the flask bottom using 1× Trypsin/EDTA diluted in PBS, re-suspended in cell media and plated in 384-well plates at about 10000 cells/well, in 25 μL cell media. Optionally, cryo-preserved cells (frozen and stored at −140° C. in 90% cell media and 10% DMSO) were thawed, washed and plated as above. Next the cells were incubated for 15-24 h at 37° C. and 5% CO2, after which cell medium was replaced with fresh medium containing 3 μM Lactacystin and test compound diluted ×200 from prepared compound plate giving 0.5% final DMSO concentration, and the highest compound concentration typically 25 μM. Cells were then incubated 4-6 h with test compound before being fixed, washed and immunostained with NICD antibody (rabbit Notch 1 (C-20)). Image acquisition of cytosolic/membrane and nuclear fluorescence as well as subsequent analysis of the nucleus and cytosolic fluorescence ratio was carried out using ImageXpress. Potential cytotoxic effects of the compounds were usually assayed by analysis of nucleus area or cell number.

[1] = Homo sapiens, HEK293, HEK cells expressing APPswe

| SMILES | IC50 (Aβtotal) | IC50 (Aβ42; [1]) | IC50 (Notch; Homo sapiens) | IC50 (Notch) | IC50 (Aβ42; HEK cells expressing APPswe) |
| --- | --- | --- | --- | --- | --- |
| COc1nc(Nc2ccc3c(n2)OC(CC(CF)CF)CN(C)C3)ccc1-c1cnn(C)c1 (stereo not drawn) [Example 31, [8-(3-Fluoro-2-fluoromethyl-propyl)-6-methyl-5,6,7,8-tetrahydro-9-oxa-1,6-diaza-benzocyclohepten-2-yl]-[6-methoxy-5-(1-methyl-1H-pyrazol-4-yl)-pyridin-2-yl]-amine] | 9470 nM | 22 nM | > 7900 nM | – | – |
| COc1nc(Nc2ccc3c(n2)OC(CC(CF)CF)CN(C)C3)ccc1-n1cnc(C)c1 (single isomer, unassigned; (+)) [Example 67, (+)-[8-(3-Fluoro-2-fluoromethyl-propyl)-6-methyl-5,6,7,8-tetrahydro-9-oxa-1,6-diaza-benzocyclohepten-2-yl]-[6-methoxy-5-(4-methyl-imidazol-1-yl)-pyridin-2-yl]-amine] | > 25000 nM | 10 nM | – | 6230 nM | – |
| COc1nc(Nc2ccc3c(n2)O[C@H](c2ccccc2)CN(C)C3)ccc1-c1cnc(C)o1 [Example 49, (2R)—N-[6-Methoxy-5-(2-methyloxazol-5-yl)-2-pyridyl]-4-methyl-2-phenyl-3,5-dihydro-2H-pyrido[3,2-f][1,4]oxazepin-8-amine] | 5460 nM | 2 nM | 2170 nM | – | – |
| COc1nc(Nc2ccc3c(n2)OC(CCC(F)(F)F)CN(C)C3)ccc1-c1cnn(C)c1 (stereo not drawn) [Example 27, [6-Methoxy-5-(1-methyl-1H-pyrazol-4-yl)-pyridin-2-yl]-[6-methyl-8-(3,3,3-trifluoro-propyl)-5,6,7,8-tetrahydro-9-oxa-1,6-diaza-benzocyclohepten-2-yl]-amine] | 8720 nM | 12 nM | 16300 nM | – | – |
| Cc1ncn(-c2ccc(Nc3ccc4c(n3)OC(c3ccc(Cl)cc3)CN(C)C4)nc2)n1 (stereo not drawn) [Example 24, 2-(4-Chlorophenyl)-4-methyl-N-(5-(3-methyl-1H-1,2,4-triazol-1-yl)pyridin-2-yl)-2,3,4,5-tetrahydropyrido[3,2-f][1,4]oxazepin-8-amine] | – | 81 nM | > 7900 nM | – | – |
| COc1nc(Nc2ccc3c(n2)OC(c2nc(C)cs2)C(C)N(C)C3)ccc1-n1cnc(C)c1 (single isomer, unassigned; (-)) [Example 59, (−)-N-(6-Methoxy-5-(4-methyl-1H-imidazol-1-yl)pyridin-2-yl)-3,4-dimethyl-2-(4-methylthiazol-2-yl)-2,3,4,5-tetrahydropyrido[3,2-f][1,4]oxazepin-8-amine] | – | – | > 25000 nM | – | 7 nM |
| COc1nc(Nc2ccc3c(n2)OC(CC(F)(F)F)CN(C)C3)ccc1-c1cnc(C)o1 (stereo not drawn) [Example 47, N-[6-Methoxy-5-(2-methyloxazol-5-yl)-2-pyridyl]-4-methyl-2-(2,2,2-trifluoroethyl)-3,5-dihydro-2H-pyrido[3,2-f][1,4]oxazepin-8-amine] | – | 4 nM | > 25000 nM | – | – |
| COc1nc(Nc2ccc3c(n2)OC(c2nc(C)cs2)C(C)N(C)C3)ccc1-n1cnc(C)c1 (single isomer, unassigned; (+)) [Example 60, (+)-N-(6-Methoxy-5-(4-methyl-1H-imidazol-1-yl)pyridin-2-yl)-3,4-dimethyl-2-(4-methylthiazol-2-yl)-2,3,4,5-tetrahydropyrido[3,2-f][1,4]oxazepin-8-amine] | – | – | – | > 25000 nM | 17 nM |
| COc1nc(Nc2cc(C)c3c(n2)OC(C2CC2)CN(C)C3)ccc1-c1cnn(C)c1 (stereo not drawn) [Example 13, 2-Cyclopropyl-N-(6-methoxy-5-(1-methyl-1H-pyrazol-4-yl)pyridin-2-yl)-4,6-dimethyl-2,3,4,5-tetrahydropyrido[3,2-f][1,4]oxazepin-8-amine] | – | 48 nM | > 5000 nM | – | – |
| COc1nc(Nc2ccc3c(n2)OC(c2nc(C)cs2)C(C)N(C)C3)ccc1-c1cnn(C)c1 (single isomer, unassigned) [Example 30, N-(6-Methoxy-5-(1-methyl-1H-pyrazol-4-yl)pyridin-2-yl)-3,4-dimethyl-2-(4-methylthiazol-2-yl)-2,3,4,5-tetrahydropyrido[3,2-f][1,4]oxazepin-8-amine] | – | – | – | > 25000 nM | 7 nM |
| COc1nc(Nc2ccc3c(n2)OC(CC(F)(F)F)CN(C)C3)ccc1-c1cnn(C)c1 (single isomer, unassigned; (-)) [Example 5, (−)-N-(6-Methoxy-5-(1-methyl-1H-pyrazol-4-yl)pyridin-2-yl)-4-methyl-2-(2,2,2-trifluoroethyl)-2,3,4,5-tetrahydropyrido[3,2-f][1,4]oxazepin-8-amine] | – | – | – | > 25000 nM | 21 nM |
| COc1nc(Nc2ccc3c(n2)OC(c2ccc(C)cn2)CN(C)C3)ccc1-c1cnn(C)c1 (stereo not drawn) [Example 41, N-(6-Methoxy-5-(1-methyl-1H-pyrazol-4-yl)pyridin-2-yl)-4-methyl-2-(5-methylpyridin-2-yl)-2,3,4,5-tetrahydropyrido[3,2-f][1,4]oxazepin-8-amine] | – | 60 nM | > 25000 nM | – | – |
| COc1nc(Nc2ccc3c(n2)OC(CC(F)(F)F)CN(C)C3)ccc1-c1ccnc(C)c1 (stereo not drawn) [Example 8, (2-Methoxy-2′-methyl-[3,4′]bipyridinyl-6-yl)-[6-methyl-8-(2,2,2-trifluoro-ethyl)-5,6,7,8-tetrahydro-9-oxa-1,6-diaza-benzocyclohepten-2-yl]-amine] | – | 5 nM | 3250 nM | – | – |
| COc1nc(Nc2ccc3c(n2)OC(c2cc(C)ccn2)CN(C)C3)ccc1-c1cnn(C)c1 (stereo not drawn) [Example 42, N-(6-Methoxy-5-(1-methyl-1H-pyrazol-4-yl)pyridin-2-yl)-4-methyl-2-(4-methylpyridin-2-yl)-2,3,4,5-tetrahydropyrido[3,2-f][1,4]oxazepin-8-amine] | – | 46 nM | > 25000 nM | – | – |
| COc1nc(Nc2ccc3c(n2)OC(C2CC2)CN(C)C3C)ccc1-c1cnn(C)c1 (single isomer, unassigned) [Example 20, 2-Cyclopropyl-N-(6-methoxy-5-(1-methyl-1H-pyrazol-4-yl)pyridin-2-yl)-4,5-dimethyl-2,3,4,5-tetrahydropyrido[3,2-f][1,4]oxazepin-8-amine] | – | – | – | > 7900 nM | 91 nM |
| COc1nc(Nc2ccc3c(n2)OC(CCC(F)(F)F)CN(C)C3)ccc1-n1cnc(C)c1 (single isomer, unassigned; (-)) [Example 62, (−)-[6-Methoxy-5-(4-methyl-imidazol-1-yl)-pyridin-2-yl]-[6-methyl-8-(3,3,3-trifluoro-propyl)-5,6,7,8-tetrahydro-9-oxa-1,6-diaza-benzocyclohepten-2-yl]-amine] | – | – | – | > 25000 nM | 5 nM |
| COc1nc(Nc2ccc3c(n2)OC(CC(F)(F)F)CN(C)C3)ccc1-c1cnn(C)c1 (stereo not drawn) [Example 3, N-(6-Methoxy-5-(1-methyl-1H-pyrazol-4-yl)pyridin-2-yl)-4-methyl-2-(2,2,2-trifluoroethyl)-2,3,4,5-tetrahydropyrido[3,2-f][1,4]oxazepin-8-amine] | – | 17 nM | > 25000 nM | – | – |
| COc1nc(Nc2ccc3c(n2)OC(CC(CF)CF)CN(C)C3)ccc1-n1cnc(C)c1 (single isomer, unassigned; (-)) [Example 68, (−)-[8-(3-Fluoro-2-fluoromethyl-propyl)-6-methyl-5,6,7,8-tetrahydro-9-oxa-1,6-diaza-benzocyclohepten-2-yl]-[6-methoxy-5-(4-methyl-imidazol-1-yl)-pyridin-2-yl]-amine] | – | – | – | > 25000 nM | 9 nM |
| Cc1cn(-c2ccc(Nc3ccc4c(n3)O[C@H](c3nc(C)cs3)CN(C)C4)nc2C#N)cn1 [Example 55, 3-(4-Methylimidazol-1-yl)-6-[[(2S)-4-methyl-2-(4-methylthiazol-2-yl)-3,5-dihydro-2H-pyrido[3,2-f][1,4]oxazepin-8-yl]amino]pyridine-2-carbonitrile] | – | 44 nM | > 25000 nM | – | – |
